US6433021B1, “Indane compounds and their pharmaceutical use” (Venantius Limited, priority 1999, dated 2002)

Legend:
[1] = system: arachidonic acid-induced ear oedema; assay: Mouse ear oedema model (arachidonic acid-induced acute inflammation); format: in vivo, Laca mice; details: 300 μg per ear topical in acetone, 30 min before arachidonic acid, 1 hour after arachidonic acid
Method: Mouse Ear Oedema Model The mouse ear oedema model was performed using Laca mice (25-35 g), of either sex. The animals were sedated with fentanyl/fluanisone (Hypnorn, Janssen). One ear was treated by the topical application of one of a range of test compounds or dexamethasone (all at 300 μg per ear in acetone). After 30 minutes, oedema was induced by the topical application of arachidonic acid (10 μl at 0.4 g/ml in acetone). The width of each ear was measured, both before and 60 minutes after the induction of oedema, using a micrometer screw gauge. Ear oedema was calculated by comparing the ear width before and after induction of oedema and expressed as percentage normal. Values are expressed as the percentage increase in ear thickness 1 hour after administration of archidonic acid and solvent controls (n=6 except Compound IV, n=4). Acute Inflammation—Mouse Ear

[2] = system: mast cells; assay: Histamine release assay (mast cell stabilisation, compound 48/80-induced histamine release); format: cell-based, Female Wistar rats; details: rat peritoneal mast cells, 2×10^−5 M test compound, stimulated with Compound 48/80, n=5, read-out: % inhibition of histamine Release (±S.E.M.)
Method: The compounds were assessed for their ability to stabilise mast cell membranes in vitro. Mast cells treated with the compounds and untreated mast cells were stimulated to release histamine. A reduction in histamine release by the treated cells compared to the untreated cells indicates stabilisation of the membranes.
The buffered salt solution (BSS) was prepared in advance (NaCl 137 mM; KCl 2.7 mM; MgCl2 1.0 mM; CaCl2 0.5 mM; NaH2PO4 0.4 mM; Glucose 5.6 mM; HEPES 10 mM). This was dispensed into test tubes and heated to 37° C. each test tube contained 4.5 ml BSS. The solvent blank was supplemented with 0.5% (v/v) dimethyl sulphoxide (DMSO) or 0.5% (v/v) distilled water (dH2O). […]
To 2 ml of supernatent from each tube was added 0.4 ml of 1 M NaOH and 0.1 ml oPT (1% (w/v) in methanol). […] The presence of the fluorescent product of the reaction was measured using a Shimadzu RF-1501 spectrofluorophotometer set at λex=360 nm, λem=450 nm.
Each drug was tested on at least five animals (n=5). The results were expressed as a percentage of maximum inhibition of compound 48/80 induced-histamine release in the solvent blank sample. […] The basal histamine release in untreated cells was noted, expressed as a percentage of the total histamine content of the cells in suspension.

[3] = first set, solvent control 69.0
[4] = second set, solvent control 79.6

O=C(CC1(C2=Cc3ccccc3C2)Cc2ccccc2C1=O)c1ccccc1 (stereo not shown) [Compound I, 1-phenyl-2-((2′-iidenyl)-indan-2-onyl)ethan-1-one]
Mean % (percentage increase in ear thickness) [1, 3]: 49.3%

OC(CC1(C2=Cc3ccccc3C2)Cc2ccccc2C1O)c1ccccc1 (stereo not shown) [Compound II, 1-phenyl-2-((2′-iindenyl)-indan-2-ol)ethan-1-ol]
inhibition at 20 µM [2]: 53.5 ± 2.53%
Mean % (percentage increase in ear thickness) [1, 4]: 17.7%

O=C(CC1(C2=Cc3ccccc3C2)Cc2ccccc2C1O)c1ccccc1 (stereo not shown) [Compound III, 1-phenyl-2-((2′-iidenyl)-indan-2-ol)ethan-1-one]
Mean % (percentage increase in ear thickness) [1, 4]: 37.3%

O=C1c2ccccc2CC1(CC(O)c1ccccc1)C1=Cc2ccccc2C1 (stereo not shown) [Compound IV, 1-phenyl-2-((2′-iidenyl)-indan-2-one)ethan-1-ol]
Mean % (percentage increase in ear thickness) [1, 4]: 13.1%

C[C@@H]1C[C@H]2[C@@H]3CCC4=CC(=O)C=C[C@]4(C)[C@@]3(F)[C@@H](O)C[C@]2(C)[C@@]1(O)C(=O)CO [Dexamethasone, reference compound]
Mean % (percentage increase in ear thickness) [1, 3]: 41.6%
Mean % (percentage increase in ear thickness) [1, 4]: 54.0%
